Source: US10265276B2, “Pharmaceutical composition for preventing or treating arthritis or inflammatory disease containing 2-methoxy-4-(3-(4-methoxyphenyl)propyl-1-en-1-yl)phenol as active ingredient” (CHUNGBUK NATIONAL UNIVERSITY INDUSTRY-ACADEMIC COOPERATION …, priority 2015, dated 2019)

What was measured:
[1] = tested on: RAW 264.7 cells; test: ROS, PGE2 and pro-inflammatory cytokine assays in LPS-induced RAW 264.7 cells; format: cell-based, mouse; conditions: concentration-dependent manner (0 to 4 mg/mL)
Description: 7. PEG2 and cytokine Assays: A PGE2 assay was carried out in the cultured RAW 264.7 cells using an ELISA kit (commercially available from R&D Systems).
(§1) 8. ROS Assay: An ROS assay was carried out using an ELISA kit (commercially available from Cell Biolabs Inc.).
RAW 264.7 cells were transiently infected with a STAT3-luciferase construct, treated with LPS (1 μg/mL) alone or a combination of MMPP and LPS, and then activated for 12 hours. Thereafter, the luciferase activity, the ROS and PGE2 expression, and a level of pro-inflammatory cytokines were determined.

[2] = tested on: RAW 264.7 cells; test: Anti-inflammatory effect in TNF-α-treated RAW 264.7 cells; format: cell-based, mouse; conditions: TNF-α (10 ng/mL), 24 hours
Description: 6. Nitrite assay: RAW 264.7 cells were added to a 96-well plate at a density of 1×10^4 cells/well, and LPS […] and TNF-α (10 ng/mL) were added or not added for 24 hours in the presence or absence of various concentrations of MMPP. Accumulation of nitrites in a supernatant was analyzed using a nitric oxide assay kit commercially available from iNtRON Biotechnology (Seongnam, Korea).
as §1
In Experimental Example 7, an experiment regarding an anti-inflammatory effect of MMPP in TNF-α-treated RAW 264.7 cells was performed.
It was confirmed that, when RAW 264.7 cells were treated with TNF-α (10 ng/mL) in combination with MMPP […] for 24 hours, the NO and ROS generation (FIG. 8(A)), the iNOS and COX2 expression (FIG. 8(B)), and the STAT3 and NF-κB activities (FIGS. 8(C) and (D)) induced by treatment with TNF-α (10 ng/mL) were reduced in the RAW 264.7 cells.

[3] = tested on: synoviocytes; test: Anti-inflammatory effect in LPS- or TNF-α-treated synoviocytes; format: cell-based, human; conditions: LPS or TNF-α (10 ng/mL), 24 hours
Description: 4. Human synoviocyte culture: The research protocol and human tissue cells used in the study were approved by the College of Medicine of Soon Chun Hyang University Medical Center. Cells were obtained from patients with rheumatoid arthritis diagnosed according to the American College of Rheumatology classification criteria revised in 1987. Synovial tissue samples are obtained from knee joints of patients with long-term rheumatoid arthritis (two males and two females, an average age of 65±21.3 years, and an average onset period of 10 years or more). FLS (Fibroblast-like synoviocytes) were cultured as described above. Simply, the FLSs were cultured in a culture dish (Nalge Nunc International, Rochester, N.Y., USA) containing a DMEM culture medium (Gibco Life Technologies) supplemented with […] FBS (Gibco Life Technologies) and 50 U·mL^−1 penicillin/streptomycin. For all cultures and an incubator, the culture was performed at 37° C. in an incubator under a 5% CO2 atmosphere. The medium was replaced every three days. The cells between 5th and 10th passage were used.
In Experimental Example 8, an experiment was performed to check an anti-inflammatory effect of MMPP in synoviocytes treated with LPS and TNF-α.
It was confirmed that the LPS […]- or TNF-α (10 ng/mL)-induced NO and ROS generations (FIG. 9(A)), the iNOS and COX2 expression (FIG. 9(B)), and STAT3 and NF-κB activities (FIGS. 9(C) and (D)) were reduced in the synoviocytes in the case of groups in which the […] were treated with LPS […] or TNF-α (10 ng/mL) in combination with MMPP […] for 24 hours.

With `COc1ccc(C/C=C/c2ccc(O)c(OC)c2)cc1` [MMPP, 2-methoxy-4-(3-(4-methoxyphenyl)prop-1-en-1-yl)phenol] the PGE2 expression [1] was “inhibited”, the ROS expression [1] was “inhibited” and the “level of pro-inflammatory cytokines (TNF-α, IL-6 and IL-1)” value [1] was “inhibited”. For the same molecule, the “NO and ROS generation” value [2] was “reduced”, the “STAT3 and NF-κB activities” value [2] was “reduced” and the “iNOS and COX2 expression” value [2] was “reduced”. The “NO and ROS generations” value [3] was “reduced”, the “STAT3 and NF-κB activities” value [3] was “reduced” and the “iNOS and COX2 expression” value [3] was “reduced”.
